Assay results taken from patent publication US10385065B2, “Antibacterial compounds” (priority 2014, dated 2019).
≈ marks a conversion by molar mass, not a printed value. Read-outs that look alike come from different tables or passages of the source.

Assays:
Assay type in all cases: cell-based
[1] = system: S. aureus NRS1 MRSA; assay: MIC, S. aureus NRS1; details: Staphylococcus aureus; Table 2; read-out: MIC S. aureus NRS1 MRSA AMG & TET resistant
[2] = system: Enterococcus faecium ATCC 19434; assay: MIC, E. faecium ATCC 19434; details: ATCC19434, Table 2
[3] = system: human hepatic cell line (HepG2 ATCC HB-8065); assay: Human cell viability assay (CellTiter-Glo), HepG2; details: read-out: IC50 values against HepG2
Procedure, shortened: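 HepG2 seeded at 20,000 cells/well, then after 24 h given two-fold serial dilutions (1-128 μg/mL, 1% DMSO) in DMEM with 0.001% FBS and 0.3% albumin. After 24 h at 37 °C, ATP luminescence (CellTiter-Glo) read; IC50 is the concentration halving viability.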

[4] = system: Staphylococcus aureus ATCC 29213; assay: MIC, broth microdilution, S. aureus ATCC 29213
[5] = system: Neisseria meningitidis ATCC 13090; assay: MIC, N. meningitidis ATCC 13090; details: ATCC13090, Table 4, 24 h incubation
[6] = system: Haemophilus influenzae ATCC 49247; assay: MIC, H. influenzae ATCC 49247; details: ATCC49247, Table 4
[7] = system: Escherichia coli ATCC 25922; assay: MIC, broth microdilution, E. coli ATCC 25922; details: ATCC25922, Table 1, wild type strain
[8] = system: S. aureus NRS482 MRSA FQ resistant; assay: MIC, S. aureus NRS482; details: Staphylococcus aureus; Table 2
[9] = system: S. aureus SACPX1-SP25 MSSA - FQ resistant; assay: microbe, parasite or virus in culture; details: Staphylococcus aureus, ATCC 29213 / MSSA, read-out: MIC S. aureus SACPX1-SP25 MSSA - FQ resistant (isogenic mutant of ATCC 29213)
[10] = system: S. aureus VRS1 MRSA VAN resistant; assay: MIC, S. aureus VRS1; details: Staphylococcus aureus, Table 2
[11] = system: Moraxella catarrhalis ATCC 25240; assay: MIC, M. catarrhalis ATCC 25240; details: ATCC25240, Table 4
[12] = system: Legionella pneumophila ATCC 33152; assay: microbe, parasite or virus in culture; details: ATCC33152, 48 h, read-out: MIC Legionella pneumophila ATCC 33152
[13] = system: Neisseria gonorrhoeae ATCC 49226; assay: MIC, N. gonorrhoeae ATCC 49226; details: ATCC49226, Table 4, 24 h incubation
[14] = system: S. aureus (MRSA) ATCC 43300; assay: MIC, S. aureus ATCC 43300; details: Staphylococcus aureus; Table 2; read-out: MIC S. aureus (MRSA) ATCC 43300 Heterogeneous MRSA strain
[15] = system: S. aureus NRS127 MRSA LZD resistant; assay: MIC, S. aureus NRS127; details: Staphylococcus aureus; Table 2
[16] = system: S. epidermidis NRS101 MRSE; assay: MIC, S. epidermidis NRS101; details: Staphylococcus epidermidis; Table 2; read-out: MIC S. epidermidis NRS101 MRSE AMG, ERY resistant
[17] = system: S. aureus NRS70 MRSA; assay: MIC, S. aureus NRS70; details: Staphylococcus aureus; Table 2
[18] = system: Streptococcus pneumoniae ATCC BAA-255; assay: MIC, S. pneumoniae ATCC BAA-255; details: ATCCBAA255, Table 2
[19] = system: S. aureus NRS100 MRSA; assay: MIC, S. aureus NRS100; details: Staphylococcus aureus; Table 2
[20] = system: S. aureus NRS107 MUP resistant; assay: MIC, S. aureus NRS107; details: Staphylococcus aureus, Table 2
[21] = HepG2, 24 h incubation, tested over 1-128 μg/mL
[22] = ATCC29213, Table 1, wild type strain, read-out: MIC S. aureus ATCC 29213
[23] = ATCC 29213 / MSSA, Table 2, read-out: MIC S. aureus (MSSA) ATCC 29213 CLSI control strain

Row | Compound | MIC [1] | MIC [2] | IC50 [3, 21] | MIC [4, 22] | MIC [4, 23] | MIC [5] | MIC [6] | MIC [7] | MIC [8] | MIC [9] | MIC [10] | MIC [11] | MIC [12] | MIC [13] | MIC [14] | MIC [15] | MIC [16] | MIC [17] | MIC [19] | MIC [20] | also measured
1 | Cc1nc2c(=O)n(C3CC3)c3cc(N4CCC(CN)C4)c(F)cc3c2o1 (centres unmarked) [Compound 57, 7-[3-(aminomethyl)pyrrolidin-1-yl]-5-cyclopropyl-8-fluoro-2-methyl-oxazolo[4,5-c]quinolin-4-one] | 1 to 10 µg/mL (≈ 2.81 to 28.1 µM) | 10 to 100 µg/mL (≈ 28.1 to 281 µM) | 10 to 100 µg/mL (≈ 28.1 to 281 µM) | < 1 µg/mL | < 1 µg/mL | 1 to 10 µg/mL (≈ 2.81 to 28.1 µM) | 1 to 10 µg/mL (≈ 2.81 to 28.1 µM) | 1 to 10 µg/mL (≈ 2.81 to 28.1 µM) | 1 to 10 µg/mL (≈ 2.81 to 28.1 µM) | 1 to 10 µg/mL (≈ 2.81 to 28.1 µM) |  |  |  |  |  |  |  |  |  |  | 
2 | Cc1nc2c(=O)n3c4c(c(N5CCC(CN)C5)c(F)cc4c2o1)OC[C@@H]3C (stereo partly drawn) [Compound 88, (2S)-6-[3-(aminomethyl)pyrrolidin-1-yl]-7-fluoro-2,12-dimethyl-4,11-dioxa-1,13-diazatetracyclo[7.6.1.0^5,^16.0^10,^14]hexadeca-5(16),6,8,10(14),12-pentaen-15-one] | 1 to 10 µg/mL (≈ 2.69 to 26.9 µM) | 10 to 100 µg/mL (≈ 26.9 to 269 µM) | 10 to 100 µg/mL (≈ 26.9 to 269 µM) | < 1 µg/mL | < 1 µg/mL | 1 to 10 µg/mL (≈ 2.69 to 26.9 µM) | 1 to 10 µg/mL (≈ 2.69 to 26.9 µM) | 1 to 10 µg/mL (≈ 2.69 to 26.9 µM) | 1 to 10 µg/mL (≈ 2.69 to 26.9 µM) | 1 to 10 µg/mL (≈ 2.69 to 26.9 µM) | 1 to 10 µg/mL (≈ 2.69 to 26.9 µM) | 1 to 10 µg/mL (≈ 2.69 to 26.9 µM) | 1 to 10 µg/mL (≈ 2.69 to 26.9 µM) | 1 to 10 µg/mL (≈ 2.69 to 26.9 µM) | 1 to 10 µg/mL (≈ 2.69 to 26.9 µM) | 1 to 10 µg/mL (≈ 2.69 to 26.9 µM) |  |  |  |  | 
3 | Cc1nc2c(=O)n3c4c(c(N5CC[C@@H](CN)C5)c(F)cc4c2o1)OC[C@@H]3C [Compound 90, (2S)-6-[(3S)-3-(aminomethyl)pyrrolidin-1-yl]-7-fluoro-2,12-dimethyl-4,11-dioxa-1,13-diazatetracyclo[7.6.1.0^5,^16.0^10,^14]hexadeca-5(16),6,8,10(14),12-pentaen-15-one] | 1 to 10 µg/mL (≈ 2.69 to 26.9 µM) |  | 10 to 100 µg/mL (≈ 26.9 to 269 µM) | < 1 µg/mL | < 1 µg/mL |  | 1 to 10 µg/mL (≈ 2.69 to 26.9 µM) | 1 to 10 µg/mL (≈ 2.69 to 26.9 µM) | 1 to 10 µg/mL (≈ 2.69 to 26.9 µM) | 1 to 10 µg/mL (≈ 2.69 to 26.9 µM) | 10 to 100 µg/mL (≈ 26.9 to 269 µM) | 1 to 10 µg/mL (≈ 2.69 to 26.9 µM) | 1 to 10 µg/mL (≈ 2.69 to 26.9 µM) |  | < 1 µg/mL | 1 to 10 µg/mL (≈ 2.69 to 26.9 µM) |  |  |  |  | 
4 | C[C@H]1COc2c(-c3cc(F)c(N)cc3F)ccc3c4ocnc4c(=O)n1c23 [Compound 93, (2S)-6-(4-amino-2,5-difluorophenyl)-2-methyl-4,11-dioxa-1,13-diazatetracyclo[7.6.1.0^5,^16.0^10,^14]hexadeca-5(16),6,8,10(14),12-pentaen-15-one] |  | 10 to 100 µg/mL (≈ 27.1 to 271 µM) | > 100 µg/mL | 1 to 10 µg/mL (≈ 2.71 to 27.1 µM) | 1 to 10 µg/mL (≈ 2.71 to 27.1 µM) |  | < 1 µg/mL | 1 to 10 µg/mL (≈ 2.71 to 27.1 µM) | 1 to 10 µg/mL (≈ 2.71 to 27.1 µM) | 1 to 10 µg/mL (≈ 2.71 to 27.1 µM) | 1 to 10 µg/mL (≈ 2.71 to 27.1 µM) | 1 to 10 µg/mL (≈ 2.71 to 27.1 µM) | < 1 µg/mL | < 1 µg/mL | < 1 µg/mL |  |  |  |  |  | 
5 | Cc1c(-c2cc(F)c(N)cc2F)ccc2c3oc(CN)nc3c(=O)n(C3CC3)c12 [Compound 100, 7-(4-amino-2,5-difluoro-phenyl)-2-(aminomethyl)-5-cyclopropyl-6-methyl-oxazolo[4,5-c]quinolin-4-one] | < 1 µg/mL | 1 to 10 µg/mL (≈ 2.52 to 25.2 µM) | > 100 µg/mL | < 1 µg/mL | < 1 µg/mL | < 1 µg/mL | < 1 µg/mL | < 1 µg/mL | < 1 µg/mL | < 1 µg/mL | 1 to 10 µg/mL (≈ 2.52 to 25.2 µM) | < 1 µg/mL | < 1 µg/mL | < 1 µg/mL | < 1 µg/mL | 1 to 10 µg/mL (≈ 2.52 to 25.2 µM) | < 1 µg/mL |  |  |  | 
6 | C[C@H]1COc2c(N3CCN(C)CC3)c(F)cc3c(=O)c(C(=O)O)cn1c23 [Levofloxacin, reference compound] | 10 to 100 µg/mL (≈ 27.7 to 277 µM) | 1 to 10 µg/mL (≈ 2.77 to 27.7 µM) | > 100 µg/mL |  | < 1 µg/mL | < 1 µg/mL | < 1 µg/mL |  | 1 to 10 µg/mL (≈ 2.77 to 27.7 µM) | 1 to 10 µg/mL (≈ 2.77 to 27.7 µM) | 10 to 100 µg/mL (≈ 27.7 to 277 µM) | < 1 µg/mL | < 1 µg/mL | < 1 µg/mL | < 1 µg/mL | > 100 µg/mL | < 1 µg/mL | < 1 µg/mL | < 1 µg/mL | < 1 µg/mL | MIC [18]: < 1 µg/mL
7 | Cc1onc(-c2ccccc2)c1C(=O)N[C@@H]1C(=O)N2[C@@H]1SC(C)(C)[C@@H]2C(=O)O [Oxacillin, reference compound] | > 100 µg/mL | 10 to 100 µg/mL (≈ 24.9 to 249 µM) | 10 to 100 µg/mL (≈ 24.9 to 249 µM) |  | < 1 µg/mL |  | > 100 µg/mL |  |  | 1 to 10 µg/mL (≈ 2.49 to 24.9 µM) | < 1 µg/mL |  |  |  | < 1 µg/mL | < 1 µg/mL | 1 to 10 µg/mL (≈ 2.49 to 24.9 µM) | 10 to 100 µg/mL (≈ 24.9 to 249 µM) | > 100 µg/mL | < 1 µg/mL | 
8 | CN[C@H](CC(C)C)C(=O)N[C@H]1C(=O)N[C@@H](CC(N)=O)C(=O)N[C@H]2C(=O)N[C@H]3C(=O)N[C@H](C(=O)N[C@H](C(=O)O)c4cc(O)cc(O)c4-c4cc3ccc4O)[C@H](O)c3ccc(c(Cl)c3)Oc3cc2cc(c3O[C@@H]2O[C@H](CO)[C@@H](O)[C@H](O)[C@H]2O[C@H]2C[C@](C)(N)[C@H](O)[C@H](C)O2)Oc2ccc(cc2Cl)[C@H]1O [Vancomycin, reference compound] | 1 to 10 µg/mL (≈ 0.69 to 6.9 µM) | < 1 µg/mL |  |  | < 1 µg/mL |  | 10 to 100 µg/mL (≈ 6.9 to 69 µM) |  | 1 to 10 µg/mL (≈ 0.69 to 6.9 µM) |  | 1 to 10 µg/mL (≈ 0.69 to 6.9 µM) |  |  |  | 1 to 10 µg/mL (≈ 0.69 to 6.9 µM) | 1 to 10 µg/mL (≈ 0.69 to 6.9 µM) | 1 to 10 µg/mL (≈ 0.69 to 6.9 µM) | < 1 µg/mL | 1 to 10 µg/mL (≈ 0.69 to 6.9 µM) | 1 to 10 µg/mL (≈ 0.69 to 6.9 µM) | IC50 ([3]; HepG2, 24 h): 10 to 100 µg/mL (≈ 6.9 to 69 µM); MIC [18]: < 1 µg/mL; MIC ([9]; Table 2): < 1 µg/mL
